Key:
p75^NTR and TrkA [1] = target: T1, p75^NTR and TrkA (Mus musculus, UniProt P01139); assay: Binding of 125I-NGF to PC12 cells (p75NTR + TrkA); design: species or system rat; settings: for Total Binding to PC12 cells: 100 μM, 125I-NGF, 120 min
T1 construct: these cells express both NGF receptor types; endogenous in cells; host or cells: PC12 rat pheochromocytoma cells
Description: (§1) PC12 cells were grown in RPMI with 10% heat inactivated donor horse serum and 5% fetal calf serum. […] The tubes were incubated for 2 hr at 4° C. and 100 μl aliquots (providing triplicate data points for each sample) were transferred to 400 μl microcentrifuges containing 200 μl of 10% glycerol in HKR. Tubes were centrifuged for 2 minutes at 5,000 rpm, the tip containing the cell pellet cut off and radioactivity bound to the cells was determined.

p75^NTR and TrkA [2] = tested on: T2, p75^NTR and TrkA; assay: Binding of 125I-NGF to PC12 cells (p75NTR + TrkA); design: species or system rat
T2 construct: these cells express both NGF receptor types; endogenous in cells; host or cells: PC12 rat pheochromocytoma cells
T2 sequence (P01139 122-239): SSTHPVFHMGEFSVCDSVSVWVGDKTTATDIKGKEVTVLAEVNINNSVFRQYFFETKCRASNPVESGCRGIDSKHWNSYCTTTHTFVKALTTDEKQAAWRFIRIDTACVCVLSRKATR
Description: as §1

NGF = target: T3, NGF (Mus musculus, UniProt P01139); assay: NGF protomer crosslinking with BS3 (NGF conformation), metal ions; format: biochemical; settings: for NGF Protomer Conformation (active/inactive): 100 μM
T3 construct: homodimer
T3 sequence (P01139 122-239): as above
Description: For crosslinking NGF […], 0.4 mM BS^3 was added to the mixture and incubated for 30 minutes at 25° C. […] For CD studies, NGF (50 μg/ml) was dissolved in 50 mM Tris-HCl buffer and spectra recorded using a computer controlled Jasco J-600 spectropolarimeter. Samples were acquired in the absence or presence of Zn^2+ (100 μM) at 22° C. in a 2 mm quartz cell averaged over eight scans. Modification of His residues by DEPC was carried out as previously described, where the molar excess of DEPC added and the extent of reaction was determined by evaluating the loss of binding activity of the modified product.

PC12 cells [3] = assay: NGF-dependent survival of PC12 cells; format: cell-based, rat; settings: for Antagonism of NGF-dependent survival: high (1 nM) or low (50 pM) NGF; for Survival @ 50 pM NGF / Survival @ 1 nM NGF: rat, pc12 cells, 100 µM
Description: (§2) Effects of divalent ions on NGF mediated survival and toxicity was evaluated using a colorimetric assay for the lysosomal enzyme acid phosphatase to determine cell number (Connolly, D. T., Knight, M. B., Harakas, N. K, Wittwer, A. J. & Feder, J. Determination of the number of endothelial cells in culture using an acid phosphatase assay. Anal. Biochem. 152, 136-140 (1986); Ueda, Y., Walsh, E., Nakanishi H. & Yoshida, K. A. colorometric assay method for the evaluation of neurotrophic activity in vitro. Neurosci. Lett. 165, 203-207 (1994)). […] To evaluate toxicity, the cells were seeded and maintained without NGF in RPMI with 10% heat inactivated donor horse serum and 5% fetal calf serum in the presence of additives. Loss in viable cell number was determined and expressed as a percent of control. NGF rescues PC12 cells from cell death in serum-free medium(Greene, L. A. Nerve growth factor prevents the death and stimulates neuronal differentiation of clonal PC12 pheochromocytoma cells in serum-free medium. J. Cell Biol. 78, 747-755 (1978)). NGF-dependent survival was assessed by harvesting PC12 cells in balanced salt solution followed with washing by 4 cycles of suspension and centrifugation in serum-free RPMI prior to seeding in 96 well plates. After incubation with additives, medium was removed from the wells and cells washed once with 200 μl PBS. Buffer containing 0.1M sodium acetate pH 5.5, 0.1% Triton X-100 and 10 mM p-nitrophenyl phosphate (Sigma 104 phosphatase substrate) was added to each well (100 μl). Plates were incubated at 37° C. for 3 hours. The reaction was stopped by the addition of 10 μl/well of 1N sodium hydroxide and the color development measured at 405 nm using a microplate reader. The relationship between cell number and enzyme activity was linear over the range 1000 to 15,000 cells.
(§3) To explore the ability of other transition metals to influence the biological activities of NGF, a series of cations known to mimic in certain respects the binding of zinc to proteins were tested. […] For this reason these ions were not tested in NGF- dependant growth phenomena. […] As these studies appeared to indicate potentially complex results upon metal ions binding to NGF, a receptor crosslinking system where specific receptor types could be identified was utilized.

PC12 cells [4] = assay: Toxicity to PC12 cells; format: cell-based, rat; settings: 100 μM
Description: as §2, §3

p75^NTR /TrkA = assay: Receptor crosslinking of 125I-NGF with transition metal ions (receptor selectivity); format: binding
Sequence of p75^NTR /TrkA (P01139 122-239): as above
Sequence of p75^NTR /TrkA (P07174 30-425 partner): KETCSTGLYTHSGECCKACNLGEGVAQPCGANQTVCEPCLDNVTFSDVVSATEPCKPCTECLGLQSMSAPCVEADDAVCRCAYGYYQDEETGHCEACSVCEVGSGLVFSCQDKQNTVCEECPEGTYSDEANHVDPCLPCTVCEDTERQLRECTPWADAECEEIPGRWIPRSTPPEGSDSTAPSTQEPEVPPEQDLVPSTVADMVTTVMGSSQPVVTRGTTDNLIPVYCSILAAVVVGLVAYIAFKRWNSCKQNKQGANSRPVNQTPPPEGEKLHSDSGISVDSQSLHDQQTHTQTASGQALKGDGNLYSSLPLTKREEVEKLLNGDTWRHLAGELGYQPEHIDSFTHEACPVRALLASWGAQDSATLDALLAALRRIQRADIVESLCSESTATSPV
Sequence of p75^NTR /TrkA (P35739 33-799 partner): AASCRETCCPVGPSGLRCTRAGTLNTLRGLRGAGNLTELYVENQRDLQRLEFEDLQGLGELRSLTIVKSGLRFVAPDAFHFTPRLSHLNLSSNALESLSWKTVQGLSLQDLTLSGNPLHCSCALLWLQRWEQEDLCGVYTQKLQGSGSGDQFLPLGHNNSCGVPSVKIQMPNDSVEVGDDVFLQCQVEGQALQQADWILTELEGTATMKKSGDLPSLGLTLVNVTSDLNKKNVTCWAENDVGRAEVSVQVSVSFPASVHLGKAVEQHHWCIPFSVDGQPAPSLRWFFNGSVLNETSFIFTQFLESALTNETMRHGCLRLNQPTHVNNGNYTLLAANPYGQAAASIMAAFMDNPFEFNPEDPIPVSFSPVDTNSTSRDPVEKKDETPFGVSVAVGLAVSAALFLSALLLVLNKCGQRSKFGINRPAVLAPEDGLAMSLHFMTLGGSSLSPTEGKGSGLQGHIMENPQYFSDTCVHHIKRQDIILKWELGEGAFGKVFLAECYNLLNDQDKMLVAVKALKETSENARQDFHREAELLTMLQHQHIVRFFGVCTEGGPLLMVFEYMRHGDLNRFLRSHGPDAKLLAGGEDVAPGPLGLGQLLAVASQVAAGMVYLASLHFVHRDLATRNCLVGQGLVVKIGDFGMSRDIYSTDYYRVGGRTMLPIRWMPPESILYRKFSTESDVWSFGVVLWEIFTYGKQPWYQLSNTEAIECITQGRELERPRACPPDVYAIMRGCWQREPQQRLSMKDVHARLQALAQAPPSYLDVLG
Description: as §3

p75 = assay: Affinity cross-linking of 125I-NGF to p75 on PC12 cells; format: binding, rat; settings: for Inhibition of p75 Interaction: 200 μM peptide, 0.1 nM 125I-NGF, PC12 cells
Description: The ability of the peptides under study to interfere with binding of NGF to NGF receptors was evaluated by analysis of inhibition of the chemical cross-linking of ^251 I-NGF to the common neurotrophin receptor p75 (Chao, J. Neurobiol. 25:1373-1385 (1994)) and the specific NGF receptor TrkA (Barbacid, J. Neurobiol. 25: 1386-1403 (1994)). Immunoprecipitation and polyacrylamide gel electrphoresis of cross linked receptors allowed identification of both receptors, as shown in FIG. 7A. […] At concentrations of 200 μM, neither R11(l) nor R11(m) were able to inhibit greater than 50% of the observed ^125 I-labelling.
The ability of the peptides derived from the 68-58/108-110 region of NGF to antagonize NGF interaction with the p75 and TrkA receptors was determined The peptides tested were bicyclic (BC) 68-58/108-110, cyclic (C) 68-58/108-110, and linear (L) 68-58/108-110, each of which are illustrated in FIGS. 2 and 5D
Receptor cross-linking studies were performed on PC12 rat pheochromocytoma cells (ATCC CRL 1721; Greene et al., Proc. Natl. Acad. Sci. USA 73: 2424-2432 (1976)) which were maintained in RPMI1640 (Gibco) supplemented with 10% fetal calf serum (Gibco). Cells were harvested by incubation and trituration in Ca^2+ and Mg^2+ free Gey's balanced salt solution, washed and suspended in 10 mM HEPES buffer (pH 7.35) containing 125 mM NaCl, 4.8 mM KCl, 1.3 mM CaCl2, […], 1.2 mM KH2 PO4, 1 g/L sucrose and 1 g/L bovine serum albumin (HEPES Krebs Ringer buffer, HKR buffer) at 10^6 cells/mL. Subsequent procedures were carried out at 4° C. unless otherwise noted.
For receptor crosslinking, ^125 I-NGF was prepared by the method of Sutter et al. (J. Biol. Chem. 254: 5972-5982 (1979)) from NGF isolated from mouse submaxillary gland (as described in Mobley et al., Biochemistry 15:1543 (1976)) obtained from Cedarlane.
[…] Control PC12 cells were incubated in HKR buffer in the presence of ^125 I-NGF only (no NGF peptide).
Receptor proteins were cross-linked with either 0.4 mM bis(sulfosuccinimidyl)suberate (BS^3, Pierce) for TrkA, or a combination of 2 mM […] (EDC) and 2 mM N-hydroxysulfosuccinimide (S-NHS) for p75^NTR as indicated. All cross-linking agents (from Pierce) were dissolved in water and added in 20 μL aliquots and the reaction allowed to proceed for 30 min at 25° C. On completion of the cross-linking reaction, the cells were washed three times in HKR buffer with BSA at 4° C. to remove excess free radiolabelled ligand and reagents. The cells were solubilized in 100 μL SDS sample buffer Samples were separated on a modified Laemmli discontinues acrylamide gel system (Laemmli, Nature 227:680 (1970)) using 4% SDS-PAGE stacking gel and a gradient urea polyacrylamide separating gel ranging from 4.5% acrylamide/18% urea to 7.5% acrylamide/48% urea. The gels were fixed and processed for autoradiography using -70° C. exposure with Kodak XAR film and manual processing (FIG. 7B).
For positive receptor identification, immunoprecipitation studies were performed. Samples of 10^7 cells in 1 mL HKR buffer were cross-linked under the conditions described above, washed in HKR buffer and solubilized in non-denaturing lysis buffer (1% NP40, 10% glycerol, 1 mM phenylmethylsulfonylfluoride, 10 μg/mL leupeptin and 0.5 mM o-vanadate in Tris-buffered saline) (Kaplan et al., Nature 350:1 158-160 (1991)). The solutions were clarified by centrifugation and immunoprecipitated with either mAb 192 (monoclonal antibody for p75; Cedarlane) or rabbit anti-TrkA, which had been raised against a COOH-terminal peptide of TrkA. The ^125 I-NGF cross-linked receptor-antibody complexes were isolated using 50 μL of a 50% solution of rabbit anti-mouse agarose (Sigma; for mAb 192) or protein A-Sepharose (Pharmcia; for anti-Trk) equilibrated in lysis buffer. Immunoprecipitates were washed three times in lysis buffer and the pellets denatured in SDS reducing sample buffer. […]

[5] = tested on: dorsal root ganglion (DRG) neurons; assay: NGF-dependent neurite growth of ED8 chick DRG neurons (FIG. 6, Terasaki plates); format: cell-based; settings: concentrations up to 200 μM
Description: FIG. 6 is a graph showing the ability of R11 to inhibit the activity of NGF in vitro using a biological assay system. […] Dissociated cells enriched for sensory neurons were prepared from embryonic day 8 (ED8) chick dorsal root ganglion (DRG) as described (Sutter et al., J. Biol. Chem. 254: 5972-5982 (1979)). Neurons were seed into wells of Terasaki plates treated sequentially with poly-D-lysine and laminin at a density of 800-1000 cells/well in "synthetic" Dulbecco's modified Eagle medium (Bottenstein et al., Proc. Natl. Acad. Sci. USA 76: 514-517 (1979)) containing 1% fetal calf serum and NGF at […]. The cells were incubated with the additives indicated at 37° C. in a 5% CO2 atmosphere At 18-20 hours, the cells were fixed in 4% formaldehyde in phosphate-buffered saline and scored for neurite growth. The cells on the entire lower horizontal surface of the well were counted using an inverted microscope fitted with phase contrast optics. A neurite was scored if its caliber from origin to terminal was constant and its length was equal to or greater than 1.5 cell body diameters. Neurite growth was corrected for background (no NGF) growth in the presence and absence of peptide.
Such a profile is not typical of a competitive inhibitor. That is, a different dose response profile would be expected if R11 were simply competing with NGF for binding to a receptor. Neither of the less constrained synthetic Intermediates of R11, i.e., R11 (linear) or R11 (monocyclic), was as effective in blocking NGF-dependent neurite growth concentrations up to 200 μM.

T1 sequence (P01139 122-239): as the sequence (P01139 122-239) above

| Compound | Total Binding to PC12 cells (p75^NTR and TrkA [1]) [% control] | NGF Protomer Conformation (active/inactive) (NGF) | Survival @ 50 pM NGF (PC12 cells [3]) [% control] | Survival @ 1 nM NGF (PC12 cells [3]) [% control] | Toxicity (PC12 cell viability) (PC12 cells [4]) [% control] | Blocking of NGF binding to TrkA and p75NTR in receptor crosslinking (p75^NTR /TrkA) | other results |
| --- | --- | --- | --- | --- | --- | --- | --- |
| [Cu+2] [Cu^2+] | -16 ± 7 | active | -2 ± 19 | -6 ± 8 | 74 ± 10 | blocked binding to both receptors | Prevention of 125I-NGF binding to PC12 cells (p75^NTR and TrkA [2]): ability to prevent binding; Antagonism of NGF-dependent survival (PC12 cells [3]): ability to antagonize the NGF-dependant survival |
| CCOC(=O)OC(=O)OCC [DEPC, diethyl-pyrocarbonate, reference compound] |  |  |  |  |  |  | Receptor binding activity of NGF modified with DEPC (p75^NTR and TrkA [1]): loss in receptor binding activity; Protomer crosslinking efficiency of NGF modified with DEPC (NGF; no Zn2+): reduction in protomer crosslinking efficiency |
| [Mn+2] [Mn^2+] | 95 ± 24 | inactive | 91 ± 5 | 59 ± 24 | 82 ± 4 | did not have a significant effect |  |
| [Pd+2] [Pd^2+] | -5 ± 1 | active | 82 ± 9 | 125 ± 48 | 75 ± 6 | blocked binding to both receptors | Prevention of 125I-NGF binding to PC12 cells (p75^NTR and TrkA [2]): ability to prevent binding |
| [Pt+2] [Pt^2+] | 68 ± 11 | active | 74 ± 21 | 92 ± 35 | 93 ± 6 | blocked binding to both receptors | Antagonism of NGF-dependent survival (PC12 cells [3]): ability to antagonize the NGF-dependant survival |
| NH2 -Cys-Gly-Ser-Glu-Val-Pro-Asn-Ser-Ala-Arg-Cys-Cys-Val-Cys-OH (H-CGSEVPNSARCCVC-OH; not fully specified; printed as NH2 -Cys-Gly-Ser-Glu-Val-Pro-Asn-Ser-Ala-Arg-Cys-Cys-Val-Cys-OH; cysteine pairing not given here) [R11(l), linear peptide R11] |  |  |  |  |  |  | Inhibition of the observed 125I-labelling (p75) (p75; 200 μM): ≤ 50%; Inhibition of p75 Interaction (p75; listed as L): no inhibition; Blocking of NGF-dependent neurite growth [5]: Neither of the less constrained intermediates R11(l) or R11 (m) were effective |
| NH2 -Cys-Gly-Ser-Glu-Val-Pro-Asn-Ser-Ala-Arg-Cys-Cys-Val-Cys-OH (H-CGSEVPNSARCCVC-OH; not fully specified; printed as NH2 -Cys-Gly-Ser-Glu-Val-Pro-Asn-Ser-Ala-Arg-Cys-Cys-Val-Cys-OH; cysteine pairing not given here) [R11(m), monocyclic R11 with a single disulfide bond] |  |  |  |  |  |  | Inhibition of p75 Interaction (p75; listed as C): no inhibition |

Reference: patent US6291247A, “Methods of screening for factors that disrupt neurotrophin conformation and reduce neurotrophin biological activity” (priority 1996, dated 2001)
